Laboratory results reported in patent US7414031B2, “5-nitro-nucleoside compounds for treating viral infections” (priority 2004, dated 2008).

What was measured:
[1] = tested on: HCV replicon I389luc-ubi-neo/NS3-3′/ET in ET (Huh-lucubineo-ET) cell line; assay: Replicon Assay; format: cell-based; conditions: Hepatitis C virus, read-out: Replicon Assay
Description: A cell line, ET (Huh-lucubineo-ET) is used for screening of compounds of the present invention for HCV RNA dependent RNA polymerase. The ET cell line is stably transfected with RNA transcripts harboring a I389luc-ubi-neo/NS3-3′/ET; replicon with firefly luciferase-ubiquitin-neomycin phosphotransferase fusion protein and EMCV-IRES driven NS3-5B polyprotein containing the cell culture adaptive mutations (E1202G; T1280I; K1846T) (Krieger at al, 2001 and unpublished). The ET cells are grown in DMEM, supplemented with 10% fetal calf serum, 2 mM Glutamine, Penicillin (100 IU/mL)/Streptomycin (100 μg/mL), 1× nonessential amino acids, and 250 μg/mL G418 (“Geneticin”). They are all available through Life Technologies (Bethesda, Md.). The cells are plated at 0.5-1.0×10^4 cells/well in the 96 well plates and incubated for 24 hrs before adding nucleoside analogs. […] Luciferase activity will be measured 48-72 hours later by adding a lysis buffer and the substrate (Catalog number Glo-lysis buffer E2661 and Bright-Glo leuciferase system E2620 Promega, Madison, Wis.). […] Under the same condition, cytotoxicity of the compounds will be determined using cell proliferation reagent, WST-1 (Roche, Germany). […] IC50 and TC50 values were calculated by fitting % inhibition at each concentration to the following equation: % inhibition=100%/[(IC50/[I])^b+1] where b is Hill's coefficient.

[2] = target: T1, recombinant HCV-NS5b (Hepatitis C virus genotype 1b, UniProt Q9WMX2); assay: HCV-NS5b Enzyme Assay; format: biochemical
T1 construct: (His)6 (C); made in house; host or cells: XL-1 cells (E. coli)
Description: The coding sequence of NS5b protein is cloned by PCR from pFKI389luc/NS3-3′/ET as described by Lohmann, V., et al. (1999) Science 285, 110-113 using the following primers: […] (SEQ. ID. NO. 1) […] (SEQ. ID. NO. 2)
The cloned fragment is missing the C terminus 21 amino acid residues. The cloned fragment is inserted into an IPTG-inducible expression plasmid that provides an epitope tag (His)6 at the carboxy terminus of the protein.
The recombinant enzyme is expressed in XL-1 cells and after induction of expression, the protein is purified using affinity chromatography on a nickel-NTA column. Storage condition is 10 mM Tris-HCl pH 7.5, 50 mM NaCl, 0.1 mM EDTA, 1 mM DTT, 20% glycerol at −20° C.
The polymerase activity is assayed by measuring incorporation of radiolabeled UTP into a RNA product using a biotinylated, heteropolymeric template, which includes a portion of the HCV genome. Typically, the assay mixture (50 μL) contains 10 mM Tris-HCl (pH 7.5), 5 mM MgCl2, 0.2 mM EDTA, 10 mM KCl, 1 unit/μL RNAsin, 1 mM DTT, 10 μM each of NTP, including [^3H]-UTP, and 10 ng/μL heteropolymeric template. Test compounds are initially dissolved in 100% DMSO and further diluted in aqueous buffer containing 5% DMSO. Typically, compounds are tested at concentrations between 1 nM and 100 μM. […] Incorporation of radioactivity is determined by scintillation counting.

[3] = patients treated at currently recommended doses; cited from earlier work
[4] = tested on: HCV; conditions: treatment of HCV with interferon; cited from earlier work

## C[C@@]1(O)[C@H](O)[C@@H](CO)O[C@H]1n1cc(C(=O)O)c2c(N)ncnc21 [Comparative Example A, 7-(2′-methyl-β-D-ribofuranosyl)-4-amino-5-carboxy-pyrrolo[2,3-d]pyrimidine, reference compound]
[1]
  IC50: > 50000 nM

## C[C@@]1(O)[C@H](O)[C@@H](CO)O[C@H]1n1cc([N+](=O)[O-])c2c(N)ncnc21 [Compound 101, 7-(2′-C-methyl-β-D-ribofuranosyl)-4-amino-5-nitro-pyrrolo[2,3-d]pyrimidine]
[1]
  IC50: 60 nM

## C[C@@]1(O)[C@H](O)[C@@H](COP(=O)(O)OP(=O)(O)OP(=O)(O)O)O[C@H]1n1cc([N+](=O)[O-])c2c(N)ncnc21 [Compound 104, 7-(2′-C-methyl-5′-triphospho-β-D-ribofuranosyl)-4-amino-5-nitro-pyrrolo[2,3-d]pyrimidine]
[2]
  IC50: 2600 nM

## NC(=O)c1ncn([C@@H]2O[C@H](CO)[C@@H](O)[C@H]2O)n1 [Ribavirin, 1-β-D-ribofuranosyl-1H-1,2,-4-triazole-3-carboxamide]
[3]
  patients with significant hemolysis: 10-20%

## interferon
[4]
  response rate (long term efficacy): about 25%
